Measurements taken from article PMC9612383, “Biological Activity of NHC-Gold-Alkynyl Complexes Derived from 3-Hydroxyflavones” (Pharmaceutics, 2022).

Key:
S. enterica 25928 = experiment: Disk diffusion test; type: cell-based; details: complex 5 μg, 24 h incubation; diameter including disk (6 mm)
Procedure: (§1) To evaluate the antibacterial potential of gold derivatives, […] bacterial strains were selected: E. coli, P. aeruginosa, S. enterica, E. faecalis, L. monocytogenes, S. epidermidis, S. aureus. Dis diffusion assay was performed following Clinical & Laboratory Standards Institute (CLSI) recommendations. Active cultures (0.5 McFarland) from all strains were spread onto Mueller–Hinton Agar (MHA, Oxoid, Basingstoke, UK) and disks impregnated with 10 µL of each gold complex or control (DMSO for negative control, phenol for positive control) were placed. Plates were and incubated for 22 h ± 2 h at 37 °C ± 1 °C and then the diameter of the inhibition zone was determined.

[1] = test system: panel of Gram-positive and Gram-negative strains; experiment: Disk diffusion method, whole panel (summary in words); type: cell-based; details: whole panel, Gram-positive and Gram-negative strains
Procedure: as §1
Given that NHC-gold derivatives might display antibacterial activity, we evaluated the antibacterial effect of the complexes toward a panel of Gram-positive and Gram-negative strains using the disk diffusion method. The selected strains are human pathogen or commensal bacteria and the results are summarized on Table 1.

[2] = target: T1, dihydrofolate reductase (DHFR) (Escherichia coli, UniProt P0ABQ4); experiment: DHFR activity assay in E. coli lysates; type: biochemical; details: E. coli lysates incubated with complex; p < 0.05
T1 construct: to 0.01–0.03 mg of cell lysate and completed with reaction buffer; endogenous in cells; host or cells: E. coli (lysate)
T1 sequence (P0ABQ4 whole entry): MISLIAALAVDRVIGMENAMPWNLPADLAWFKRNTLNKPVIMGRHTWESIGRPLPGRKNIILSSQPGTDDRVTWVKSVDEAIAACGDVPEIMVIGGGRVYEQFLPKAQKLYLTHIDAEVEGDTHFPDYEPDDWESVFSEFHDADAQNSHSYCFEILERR
Procedure: For sample preparation, E. coli were lysated by sonication. After ultrasonic homogenization, the lysate was centrifuged 1 min at 13,000 rpm and the pellet was resuspended in extraction buffer. […] Both extraction and reaction buffer consisted of 10 mM Tris-HCl, 1 mM EDTA, 100 mM NaCl and protease inhibitor.

Caco-2 cells [3] = experiment: MTT antiproliferative assay; type: cell-based, Human; details: Caco-2 cell line, 72 h incubation, mean ± SE
Procedure: Human colorectal adenocarcinoma Caco-2 cells were kindly provided by Dr. Edith Brot-Laroche (Universite Pierre et Marie Curie-Paris 6 UMR S872, Les Cordeliers, France) and were maintained in a humidified atmosphere of 5% CO2 at 37 °C in Dulbecco’s Modified Eagles medium (DMEM) (Gibco Invitrogen, Paisley, UK) supplemented with 20% fetal bovine serum, 1% non-essential amino acids, 1% penicillin (1000 U/mL), 1% streptomycin ([…]) and 1% amphotericin (250 U/mL). For treatment, gold complexes were initially dissolved in DMSO to a concentration of 20 mM and then diluted on cell culture without fetal bovine serum to the required work concentrations, which was added 24 h post-seeding. Then, cells were incubated at 37 °C for the required time for each assay.
Cell viability was determined with the 3-(4,5-dimethyl-2-thiazoyl)-2,5-diphenyltetrazolium bromide (MTT) assay as previously described by Mármol et al.. For IC50 calculation, cells were grown in 96-well plates at a density of 4000 cells per well and incubated overnight at standard culture conditions. Then, cells were exposed 72 h to 0–20 μM of each gold complex and changes in absorbance were converted into percentage of growth inhibition in comparison to negative control (DMSO. Absorbance was measured with SPECTROstar Nano (BMG Labtech).

[4] = n-Octanol-water distribution coefficient, shake-flask; type: physicochemical; details: n-octanol / buffered aqueous solution pH 7.4
Procedure: The n-octanol-water coefficients of the complexes were determined as previously reported using a shake-flask method. Buffered-saline distilled water (100 mL, phosphate buffer [PO4^3−] = 10 mM, [NaCl] = 0.15 M, pH 7.4) and n-octanol (100 mL) were shaken for 72 h to allow saturation of both phases. Approximately 1 mg of the complexes was dissolved in 5 mL of the aqueous phase and 5 mL of the organic phase were added, mixing for 10 min. The resulting emulsion was centrifuged to separate the phases. The concentration of the compounds in each phase was determined using UV absorbance spectroscopy. LogP was defined as log{[compound(organic)]/[compound(aqueous)]}.

[5] = target: T2, human recombinant thioredoxin reductase (Homo sapiens, UniProt Q16881); experiment: Recombinant human TrxR activity (DTNB); type: biochemical; details: 40 μM of complex; p > 0.05
T2 construct: purchased SIGMA SRP6081
T2 sequence (Q16881 151-649 limits assumed): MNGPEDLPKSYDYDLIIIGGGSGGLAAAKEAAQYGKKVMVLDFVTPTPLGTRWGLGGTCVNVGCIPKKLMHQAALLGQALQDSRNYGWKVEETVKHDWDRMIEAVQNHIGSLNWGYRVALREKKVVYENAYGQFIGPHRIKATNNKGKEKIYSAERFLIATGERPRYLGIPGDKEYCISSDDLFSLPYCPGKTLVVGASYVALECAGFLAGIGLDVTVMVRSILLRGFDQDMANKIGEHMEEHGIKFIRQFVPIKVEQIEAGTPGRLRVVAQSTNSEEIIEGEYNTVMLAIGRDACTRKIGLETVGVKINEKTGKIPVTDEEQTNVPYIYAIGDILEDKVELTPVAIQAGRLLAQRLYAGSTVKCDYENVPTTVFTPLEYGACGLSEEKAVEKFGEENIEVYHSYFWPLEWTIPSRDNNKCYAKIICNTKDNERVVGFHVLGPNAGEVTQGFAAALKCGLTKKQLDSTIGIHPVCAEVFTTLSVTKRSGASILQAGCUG
Procedure: A measurement of human recombinant thioredoxin reductase was performed as previously described by Quero et al.. Briefly, gold complex was dissolved in DMSO at the desired concentrations and was incubated for 45 min with recombinant human TrxR (SIGMA SRP6081) at 37 °C in a 96 well plate. 25 μL of reaction mix, composed by 500 μL PBS pH 7.4, 80 μL 100 mM EDTA pH 7.5, 20 μL 0.05% BSA, 20 mM 100 μL NADPH, and 300 μL distilled H2O, was then added to each well. 25 μL of 20 mM 5,5′-dithiobis(2-nitrobenzoic acid) (DNTB), dissolved in 100% EtOH, were added to start the reaction and changes in absorbance at 405 nm were monitored every 10 s for 6 min. For comparison purposes, the activity of recombinant TrxR in presence of DMSO was used as negative control.

Caco-2 cells [6] = experiment: Intracellular ROS levels; type: cell-based, Human; details: Caco-2 cells, 10, 20 and 40 μM, 1 h incubation; p > 0.05
Procedure: Caco-2 cells were grown in 96-well plates (4000 cells/well) and incubated overnight at 5% CO2 and 37 °C. Then, cells were exposed to the required concentration of gold complex for 1 h and total intracellular ROS levels determination was performed as previously described by Sanchez-de-Diego et al..

Cn1cc[n+](C)[c]1[Au-][C]#CCOc1c(-c2ccc(Br)cc2)oc2ccccc2c1=O [1b, [Au(Lb)(IMe)] (R = Br; IMe = C5H10N2)]
Inhibition Zone (S. enterica 25928): 8.90 ± 1.56 mm | antibacterial effect (in words) [1]: able to interfere with the development of both Gram positive and Gram negative strains | DHFR activity (percentage respect to control) [2]: significantly decreased DHFR activity | IC50 (Caco-2 cells [3]): 23 ± 2.42 µM | LogP7.4 (distribution coefficient) [4]: 1.32 | enzymatic activity of recombinant TrxR [5]: no significant changes | reactive oxygen species (ROS) levels (Caco-2 cells [6]): no significant changes
